Tested on: LG0567-F671-PDC multi-cell spheroid viability
Assay: Anticancer human tumor LG0567-F671-PDC patient-derived lung adenocarcinoma cell line growth inhibition [IpAb]
Details: for IC50: curve of first compound; for viability, T/C: stronger effect = lower value
In short: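 Spheroids of 60% malignant cells, 25% HUVEC and 15% MSC were exposed to targeted agents combined with ipatasertib or abemaciclib. Doses started at or near clinical Cmax (10 microM when unknown) and fell in half-log steps.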

[1] = second compound 0.01 µM, first compound 0.0316 µM
[2] = second compound 0.01 µM, first compound 0.1 µM
[3] = second compound 0.01 µM, first compound 0.316 µM
[4] = second compound 0.01 µM, first compound 1 µM
[5] = second compound 0.01 µM, first compound 3.16 µM
[6] = second compound 0.01 µM, first compound 10 µM
[7] = second compound 0.0316 µM, first compound 0.0316 µM
[8] = second compound 0.0316 µM, first compound 0.1 µM
[9] = second compound 0.0316 µM, first compound 0.316 µM
[10] = second compound 0.0316 µM, first compound 1 µM
[11] = second compound 0.0316 µM, first compound 3.16 µM
[12] = second compound 0.0316 µM, first compound 10 µM
[13] = second compound 0.1 µM, first compound 0.0316 µM
[14] = second compound 0.1 µM, first compound 0.1 µM
[15] = second compound 0.1 µM, first compound 0.316 µM
[16] = second compound 0.1 µM, first compound 1 µM
[17] = second compound 0.1 µM, first compound 3.16 µM
[18] = second compound 0.1 µM, first compound 10 µM
[19] = second compound 0.316 µM, first compound 0.0316 µM
[20] = second compound 0.316 µM, first compound 0.1 µM
[21] = second compound 0.316 µM, first compound 0.316 µM
[22] = second compound 0.316 µM, first compound 1 µM
[23] = second compound 0.316 µM, first compound 3.16 µM
[24] = second compound 0.316 µM, first compound 10 µM
[25] = second compound 1 µM, first compound 0.0316 µM
[26] = second compound 1 µM, first compound 0.1 µM
[27] = second compound 1 µM, first compound 0.316 µM
[28] = second compound 1 µM, first compound 1 µM
[29] = second compound 1 µM, first compound 3.16 µM
[30] = second compound 1 µM, first compound 10 µM
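Also: viability read after 7 days of drug exposure.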
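For viability, T/C in this document: 100% = DMSO vehicle control luminescence.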

`CC1(C)CCC(CN2CCN(c3ccc(C(=O)NS(=O)(=O)c4ccc(NCC5CCOCC5)c([N+](=O)[O-])c4)c(Oc4cnc5[nH]ccc5c4)c3)CC2)=C(c2ccc(Cl)cc2)C1` + CCN1CCN(Cc2ccc(Nc3ncc(F)c(-c4cc(F)c5nc(C)n(C(C)C)c5c4)n3)nc2)CC1 was tested, and the IC50 (second compound 0.01 µM) was 7.19 µM, the IC50 (second compound 0.0316 µM) was 5.8 µM and the IC50 (second compound 0.1 µM) was 5.91 µM. The IC50 (second compound 0.316 µM) was 4.88 µM, the IC50 (second compound 1 µM) was 4.69 µM and the viability, T/C [1] was 96.5%. It also gave a viability, T/C [2] of 123%, a viability, T/C [3] of 106% and a viability, T/C [4] of 105%. It also gave a viability, T/C [5] of 119%, a viability, T/C [6] of 25.9% and a viability, T/C [7] of 63.6%. The viability, T/C [8] was 95.8%, the viability, T/C [9] was 87.1% and the viability, T/C [10] was 72.2%. The viability, T/C [11] was 83.2%, the viability, T/C [12] was 22.6% and the viability, T/C [13] was 80.5%. For the same molecule, the viability, T/C [14] was 86.9%, the viability, T/C [15] was 83.2% and the viability, T/C [16] was 84.5%. It also gave a viability, T/C [17] of 83%, a viability, T/C [18] of 22.2% and a viability, T/C [19] of 69.6%. It also gave a viability, T/C [20] of 76.1%, a viability, T/C [21] of 80.8% and a viability, T/C [22] of 76.9%. For the same molecule, the viability, T/C [23] was 73.3%, the viability, T/C [24] was 11.4% and the viability, T/C [25] was 69.6%. For the same molecule, the viability, T/C [26] was 80.3%, the viability, T/C [27] was 64% and the viability, T/C [28] was 68.8%. It also gave a viability, T/C [29] of 67.1% and a viability, T/C [30] of 17.5%.

In the case of `CCCS(=O)(=O)Nc1ccc(F)c(C(=O)c2c[nH]c3ncc(-c4ccc(Cl)cc4)cc23)c1F` + CCN1CCN(Cc2ccc(Nc3ncc(F)c(-c4cc(F)c5nc(C)n(C(C)C)c5c4)n3)nc2)CC1, the IC50 (second compound 0.01 µM) is reported as > 10 µM, the IC50 (second compound 0.0316 µM) is reported as > 10 µM and the IC50 (second compound 0.1 µM) is reported as > 10 µM. The IC50 (second compound 0.316 µM) was > 10 µM, the IC50 (second compound 1 µM) was > 10 µM and the viability, T/C [1] was 104%. For the same molecule, the viability, T/C [2] was 140%, the viability, T/C [3] was 112% and the viability, T/C [4] was 145%. The viability, T/C [5] was 169%, the viability, T/C [6] was 168% and the viability, T/C [7] was 93.3%. It also gave a viability, T/C [8] of 105%, a viability, T/C [9] of 140% and a viability, T/C [10] of 121%. For the same molecule, the viability, T/C [11] was 156%, the viability, T/C [12] was 115% and the viability, T/C [13] was 77.4%. For the same molecule, the viability, T/C [14] was 98.8%, the viability, T/C [15] was 91.6% and the viability, T/C [16] was 113%. The viability, T/C [17] was 154%, the viability, T/C [18] was 92.1% and the viability, T/C [19] was 68.8%. The viability, T/C [20] was 86.3%, the viability, T/C [21] was 91.7% and the viability, T/C [22] was 108%. It also gave a viability, T/C [23] of 80.1%, a viability, T/C [24] of 55.4% and a viability, T/C [25] of 66.9%. The viability, T/C [26] was 88.3%, the viability, T/C [27] was 73.7% and the viability, T/C [28] was 70.4%. For the same molecule, the viability, T/C [29] was 76.9% and the viability, T/C [30] was 65.1%.

In the case of `Cn1cnc2c(F)c(Nc3ccc(Br)cc3Cl)c(C(=O)NOCCO)cc21` + CCN1CCN(Cc2ccc(Nc3ncc(F)c(-c4cc(F)c5nc(C)n(C(C)C)c5c4)n3)nc2)CC1, the IC50 (second compound 0.01 µM) is reported as 0.0191 µM, the IC50 (second compound 0.0316 µM) is reported as 0.0119 µM and the IC50 (second compound 0.1 µM) is reported as < 0.00949 µM. The IC50 (second compound 0.316 µM) was < 0.00949 µM, the IC50 (second compound 1 µM) was < 0.00949 µM and the viability, T/C (second compound 0.01 µM, first compound 0.00949 µM) was 55%. The viability, T/C (second compound 0.01 µM, first compound 0.03 µM) was 48%, the viability, T/C (second compound 0.01 µM, first compound 0.0949 µM) was 28.8% and the viability, T/C (second compound 0.01 µM, first compound 0.3 µM) was 22.5%. It also gave a viability, T/C (second compound 0.01 µM, first compound 0.949 µM) of 19.9%, a viability, T/C (second compound 0.01 µM, first compound 3 µM) of 13.4% and a viability, T/C (second compound 0.0316 µM, first compound 0.00949 µM) of 53.5%. For the same molecule, the viability, T/C (second compound 0.0316 µM, first compound 0.03 µM) was 36.4%, the viability, T/C (second compound 0.0316 µM, first compound 0.0949 µM) was 27.9% and the viability, T/C (second compound 0.0316 µM, first compound 0.3 µM) was 17.3%. For the same molecule, the viability, T/C (second compound 0.0316 µM, first compound 0.949 µM) was 20.2%, the viability, T/C (second compound 0.0316 µM, first compound 3 µM) was 13.5% and the viability, T/C (second compound 0.1 µM, first compound 0.00949 µM) was 47.5%. It also gave a viability, T/C (second compound 0.1 µM, first compound 0.03 µM) of 38.5%, a viability, T/C (second compound 0.1 µM, first compound 0.0949 µM) of 28% and a viability, T/C (second compound 0.1 µM, first compound 0.3 µM) of 17.4%. For the same molecule, the viability, T/C (second compound 0.1 µM, first compound 0.949 µM) was 17%, the viability, T/C (second compound 0.1 µM, first compound 3 µM) was 10.6% and the viability, T/C (second compound 0.316 µM, first compound 0.00949 µM) was 48.8%. For the same molecule, the viability, T/C (second compound 0.316 µM, first compound 0.03 µM) was 29.9%, the viability, T/C (second compound 0.316 µM, first compound 0.0949 µM) was 33.6% and the viability, T/C (second compound 0.316 µM, first compound 0.3 µM) was 24.7%. For the same molecule, the viability, T/C (second compound 0.316 µM, first compound 0.949 µM) was 17.4%, the viability, T/C (second compound 0.316 µM, first compound 3 µM) was 11.4% and the viability, T/C (second compound 1 µM, first compound 0.00949 µM) was 45%. For the same molecule, the viability, T/C (second compound 1 µM, first compound 0.03 µM) was 35.2%, the viability, T/C (second compound 1 µM, first compound 0.0949 µM) was 29.6% and the viability, T/C (second compound 1 µM, first compound 0.3 µM) was 27.5%. For the same molecule, the viability, T/C (second compound 1 µM, first compound 0.949 µM) was 18.6% and the viability, T/C (second compound 1 µM, first compound 3 µM) was 11.3%.

— PubChem BioAssay AID2060332 (Molecular Pharmacology Branch, DTP, NCI, 2025)
